Assay results: patent US20230136562A1, “SPIROUREA DERIVATIVES” (Idorsia Pharmaceuticals Ltd, priority 2020, published 2023)
Read-outs that look alike come from different tables or passages of the source.

Tested on: primary neuronal cultures from embryonic rat brains
Assay: Rat oscillation assay (FLIPR, neuronal calcium oscillations)
Format: cell-based
Details: Rattus norvegicus
Summary of the method: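 Cortical neurons from E18 Wistar rat embryos, cultured 8–10 days at high density, loaded with 1 μM Fluo-8 AM; calcium oscillations recorded by FLIPR once per second in Mg-free HBSS with 2 mM CaCl2, 20 mM HEPES, pH 7.4. Two acquisitions ("Acute", 500 sec, compound added at 250 sec; "20 min"), ± Kv7 blocker XE-991.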

[1] = 20 min, AUC of fluorescence measured 20 min after compound addition, read-out: FLIPR: IC50 [nM] 20 min
[2] = Acute phase, ratio of AUC fluorescence before and after compound addition, read-out: FLIPR: IC50 [nM] acute

Row | SMILES | IC50 [1] | IC50 [2]
1 | CC(NC(=O)NC1CC2(CC2)C1)c1cccc2c1OC(F)(F)O2 (racemic) [Example 121, (±)-1-[1-(2,2-Difluoro-benzo[1,3]dioxol-4-yl)-ethyl]-3-spiro[2.3]hex-5-yl-urea] | 1210 nM | 990 nM
2 | O=C(NCc1ccnc(OC(F)(F)F)c1)NC1CC2(CCC2)C1 [Example 96, 1-Spiro[3.3]hept-2-yl-3-(2-trifluoromethoxy-pyridin-4-ylmethyl)-urea] | 61 nM | 82 nM
3 | CC(NC(=O)NC1CC2(CC2)C1)c1cc(OCC(F)(F)F)ncn1 (racemic) [Example 144, (±)-1-Spiro[2.3]hex-5-yl-3-{1-[6-(2,2,2-trifluoro-ethoxy)-pyrimidin-4-yl]-ethyl}-urea] | 119 nM | 96 nM
4 | O=C(NC1CC2(CCC2)C1)NC1(c2cccc(OC(F)F)c2)CC1 [Example 7, 1-[1-(3-Difluoromethoxy-phenyl)-cyclopropyl]-3-spiro[3.3]hept-2-yl-urea] | 142 nM | 85 nM
5 | CC(NC(=O)NC1CC2(CC2)C1)c1cccc(C(F)(F)F)c1 (racemic) [Example 140, (±)-1-Spiro[2.3]hex-5-yl-3-[1-(3-trifluoromethyl-phenyl)-ethyl]-urea] | 59 nM | 27 nM
6 | O=C(NCc1cc(F)cc(C(F)(F)F)c1)NC1CC2(CC2)C1 [Example 142, 1-(3-Fluoro-5-trifluoromethyl-benzyl)-3-spiro[2.3]hex-5-yl-urea] | 277 nM | 204 nM
7 | O=C(NCc1cccc(OC(F)(F)F)c1F)NC1CC2(CC2)C1 [Example 134, 1-(2-Fluoro-3-trifluoromethoxy-benzyl)-3-spiro[2.3]hex-5-yl-urea] | 82 nM | 63 nM
8 | O=C(NCc1ccnc(OCC(F)(F)F)n1)NC1CC2(CCC2)C1 [Example 70, 1-Spiro[3.3]hept-2-yl-3-[2-(2,2,2-trifluoro-ethoxy)-pyrimidin-4-ylmethyl]-urea] | 546 nM | 219 nM
9 | C[C@@H](NC(=O)NC1CC2(CCC2)C1)c1cccc(OC(F)F)c1 (single isomer, unassigned) [Example 174] | 2490 nM | 2870 nM
10 | O=C(NC1CC2(CCC2)C1)NC(c1cccc(OC(F)F)c1)C1CC1 (racemic) [Example 25, (±)-1-[Cyclopropyl-(3-difluoromethoxy-phenyl)-methyl]-3-spiro[3.3]hept-2-yl-urea] | 19 nM | 10 nM
11 | CC(NC(=O)NC1CC2(CCC2)C1)c1cc(F)cc(OCC(F)(F)F)c1 (racemic) [Example 95, (±)-1-{1-[3-Fluoro-5-(2,2,2-trifluoro-ethoxy)-phenyl]-ethyl}-3-spiro[3.3]hept-2-yl-urea] | 48 nM | 52 nM
12 | CS(=O)(=O)CC(NC(=O)NC1CC2(CCC2)C1)c1cccc(C(F)(F)F)c1 (racemic) [Example 69, (±)-1-[2-Methanesulfonyl-1-(3-trifluoromethyl-phenyl)-ethyl]-3-spiro[3.3]hept-2-yl-urea] | 83 nM | 95 nM
13 | CC(NC(=O)NC1CC2(CCC2)C1)c1cc(OCC(F)(F)F)ccc1Cl (racemic) [Example 39, (±)-1-{1-[2-Chloro-5-(2,2,2-trifluoro-ethoxy)-phenyl]-ethyl}-3-spiro[3.3]hept-2-yl-urea] | 571 nM | 487 nM
14 | CC(NC(=O)NC1CC2(CCC2)C1)c1cccc(S(F)(F)(F)(F)F)c1 (racemic) [Example 34, (±)-1-(1-(3-(pentafluoro-λ^6-sulfaneyl)phenyl)ethyl)-3-(spiro[3.3]heptan-2-yl)urea] | 8.5 nM | 6.7 nM
15 | O=C(NCc1cc(F)cc(C(F)(F)F)c1)NC1CC2(CCC2)C1 [Example 18, 1-(3-Fluoro-5-trifluoromethyl-benzyl)-3-spiro[3.3]hept-2-yl-urea] | 65 nM | 109 nM
16 | O=C(NC1CC2(CCC2)C1)NC(c1cccc(C(F)(F)F)c1)C(F)(F)F (centres unmarked) [Example 58, 1-Spiro[3.3]hept-2-yl-3-[2,2,2-trifluoro-1-(3-trifluoromethyl-phenyl)-ethyl]-urea] | 16 nM | 20 nM
17 | O=C(NCc1cccc(C(F)(F)F)c1F)NC1CC2(CC2)C1 [Example 149, 1-(2-Fluoro-3-trifluoromethyl-benzyl)-3-spiro[2.3]hex-5-yl-urea] | 103 nM | 98 nM
18 | O=C(NCc1cc(C(F)(F)F)ccc1O)NC1CC2(CCC2)C1 [Example 38, 1-(2-Hydroxy-5-trifluoromethyl-benzyl)-3-spiro[3.3]hept-2-yl-urea] | 330 nM | 627 nM
19 | COCC(NC(=O)NC1CC2(CCC2)C1)c1cc(OCC(F)(F)F)ncn1 (racemic) [Example 78, (±)-1-{2-Methoxy-1-[6-(2,2,2-trifluoro-ethoxy)-pyrimidin-4-yl]-ethyl}-3-spiro[3.3]hept-2-yl-urea] | 7.2 nM | 9.4 nM
20 | O=C(NC1CC2(CCC2)C1)NC(CO)c1cc(OCC(F)(F)F)ncn1 (racemic) [Example 83, (±)-1-{2-Hydroxy-1-[6-(2,2,2-trifluoro-ethoxy)-pyrimidin-4-yl]-ethyl}-3-spiro[3.3]hept-2-yl-urea] | 100 nM | 93 nM
21 | C[C@@H](NC(=O)NC1CC2(CCC2)C1)c1cc(OCC(F)(F)F)ncn1 (single isomer, unassigned) [Example 183] | 1990 nM | 1420 nM
22 | COCC1c2cccc(OCC(F)(F)F)c2CCN1C(=O)NC1CC2(CCC2)C1 (racemic) [Example 54, (±)-1-Methoxymethyl-5-(2,2,2-trifluoro-ethoxy)-3,4-dihydro-1H-isoquinoline-2-carboxylic acid spiro[3.3]hept-2-ylamide] | 244 nM | 207 nM
23 | O=C(NCc1cccc(OC(F)(F)F)c1F)NC1CC2(CCC2)C1 [Example 8, 1-(2-Fluoro-3-trifluoromethoxy-benzyl)-3-spiro[3.3]hept-2-yl-urea] | 35 nM | 78 nM
24 | COCC(Oc1cc(CNC(=O)NC2CC3(CCC3)C2)ccn1)C(F)(F)F (racemic) [Example 107, (±)-1-Spiro[3.3]hept-2-yl-3-[2-(2,2,2-trifluoro-1-methoxymethyl-ethoxy)-pyridin-4-ylmethyl]-urea] | 91 nM | 72 nM
25 | O=C(NCc1cccc(C(F)F)c1)NC1CC2(CCC2)C1 [Example 15, 1-(3-Difluoromethyl-benzyl)-3-spiro[3.3]hept-2-yl-urea] | 126 nM | 124 nM
26 | COc1ccc(C(F)(F)F)cc1CNC(=O)NC1CC2(CC2)C1 [Example 125, 1-(2-Methoxy-5-trifluoromethyl-benzyl)-3-spiro[2.3]hex-5-yl-urea] | 1990 nM | 1820 nM
27 | COc1ccc(C(F)(F)F)cc1C(C)NC(=O)NC1CC2(CCC2)C1 (racemic) [Example 20, (±)-1-[1-(2-Methoxy-5-trifluoromethyl-phenyl)-ethyl]-3-spiro[3.3]hept-2-yl-urea] | 304 nM | 508 nM
28 | O=C(NC1CC2(CCC2)C1)NC1(c2cccc(C(F)(F)F)c2)COC1 [Example 44, 1-Spiro[3.3]hept-2-yl-3-[3-(3-trifluoromethyl-phenyl)-oxetan-3-yl]-urea] | 100 nM | 78 nM
